Measurements taken from publication PMC9252067 (Cell chemical biology, 2021).

Experiments:
M. tuberculosis H37Rv = details: for EC50: M. tuberculosis growth, 1 week incubation, mean ± SD (n = 3) for JCP276, BMB034, BMB038, others single dose-response experiment (n = 1)
[1] = test system: BMB034-labeled proteins (serine hydrolases) of M. tuberculosis H37Rv; test: Competitive ABPP in live cells with BMB034 probe, gel-based; details: pre-treatment of cultures 1 h; 1 μM BMB034 labeling; JCP276 at 1 or 10 μM

With `O=c1oc(Cl)c(Cl)c2ccccc12` [DCI, 3,4-dichloroisocoumarin] the “inhibition of M. tuberculosis growth” value (M. tuberculosis H37Rv; negative control compound) was “does not inhibit M. tuberculosis growth” and the “competition with BMB034 labeling” value [1] was “did not compete”.

`C#Cc1ccc(NC(=O)Nc2ccc3c(Cl)c(OCCCBr)oc(=O)c3c2)cc1` [BMB038, 1-(3-(3-bromopropoxy)-4-chloro-1-oxo-1H-isochromen-7-yl)-3-(4-ethynylphenyl)urea] was tested, and the EC50 (M. tuberculosis H37Rv) was 36 ± 11 µM.

`C#CCCOc1oc(=O)c2cc(NC(=O)Nc3ccccc3)ccc2c1Cl` [BMB034, 1-(3-(but-3-yn-1-yloxy)-4-chloro-1-oxo-1H-isochromen-7-yl)-3-phenylurea] was tested, and the EC50 (M. tuberculosis H37Rv) was 8.7 ± 1.1 µM.
